The source made the active and inactive calls. For most assays here, no stated cut-off is given here; in the data, actives have a measured EC50 and inactives only a lower limit.
What was measured:
Fatty acid synthase = Fatty acid synthase (Homo sapiens, UniProt P49327); experiment: FAS thioesterase domain inhibitors, dose response, biochemical, kinetic fluorescence intensity (AID 624326); assay type: functional;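 further: rate of fluorescence rise from hydrolysis of a fluorogenic O-methyl fluorescein ester substrate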
cells = assay type: functional
[1] = inhibitors of firefly luciferase expression or activity, dose response, H4 neuroglioma cells, luminescence (AID 1990); assay type: functional, cell-based
[2] = Luminescence Cell-Based Dose Response HTS to Identify Inhibitors of 5'UTR Stem-Loop Driven Prion Protein mRNA Translation in H4 Neuroglioblastoma Cells. [Related pubchem assays: 1827 (Project Summary), 1813 (Primary HTS)]; assay type: functional
[3] = inhibitors of SNCA 5'UTR-driven reporter translation, confirmation, H4 neuroglioma cells, luminescence (AID 1988); assay type: functional, cell-based
[4] = NIH-3T3 fibroblast cytotoxicity, dose response, cytotoxicity control, cell-based, fluorescence, Alamar Blue, secondary assay (AID 2327); assay type: functional;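 further: NIH-3T3 mouse fibroblasts cultured with fluconazole at 8 µg/mL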
[5] = C. albicans growth with fluconazole, confirmation, fluorescence, retest (AID 2467); assay type: functional, cell-based
[6] = P. falciparum Dd2 growth inhibitors, dose response, SYBR Green, cherry-picked samples (AID 1159567); assay type: functional, cell-based
H9c2 = experiment: cells; assay type: functional, cell-based; details: Rattus norvegicus, H9c2, Myocardium;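 further: confirmatory concentration-response retest of ultra-high-throughput screening hits for modulation of myocardial damage; cell death induced by hydrogen peroxide oxidative stress; compound pretreatment for 60 min then peroxide exposure for 2 h; potency is for protecting the cells against peroxide damage rather than for killing them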
[7] = growth suppression of PTEN-null colon cells, dose response, cell-based, HCT116 PTEN knockout (AID 1047); assay type: functional;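 further: HCT116 colon tumor cells with PTEN knocked out; cells exposed to compound for 60 hours before readout; potency for loss of cell viability measured by luminescence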
[8] = growth suppression of beta-catenin-knockout colon cells, dose response, cell-based, HCT116, human colon tumor (AID 1045); assay type: functional;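 further: HCT116 colon tumor cells with beta catenin knocked out; cells exposed to compound for 60 hours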
[9] = Luminescence Cell-Based Dose Confirmation HTS to Identify Activators of 5'UTR Stem-Loop Driven Alpha-Synuclein mRNA Translation in H4 Neuroglioblastoma Cells. [Related pubchem assays: 1829 (Project Summary), 1814 (Primary HTS)]; assay type: functional
[10] = Luminescence Cell-Based Dose Response HTS to Identify Activators of Luciferase Translation or Activity in H4 […] Cells. [Related pubchem assays: 1829 (Project Summary), 1814 (Primary HTS)]; assay type: functional
H4 = experiment: Luminescence Cell-Based Dose Response HTS to Identify Activators of 5'UTR Stem-Loop Driven Prion Protein mRNA Translation in H4 Neuroglioblastoma Cells. [Related pubchem assays: 1829 (Project Summary), 1814 (Primary HTS)]; assay type: functional; details: Homo sapiens
[11] = target: T1, Heat shock factor protein 1 (Mus musculus, UniProt P38532); experiment: inhibition of MG132-induced HSE-luciferase signal, confirmation, cell-based, NIH3T3, luminescence, dose retest (AID 2382); assay type: functional;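 further: NIH3T3 fibroblasts with HSF1-driven luciferase reporter stressed by proteasome inhibitor MG132; luminescence from HSF1-driven luciferase expression after 8 hours of MG132 stress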
T1 sequence (P38532 whole entry): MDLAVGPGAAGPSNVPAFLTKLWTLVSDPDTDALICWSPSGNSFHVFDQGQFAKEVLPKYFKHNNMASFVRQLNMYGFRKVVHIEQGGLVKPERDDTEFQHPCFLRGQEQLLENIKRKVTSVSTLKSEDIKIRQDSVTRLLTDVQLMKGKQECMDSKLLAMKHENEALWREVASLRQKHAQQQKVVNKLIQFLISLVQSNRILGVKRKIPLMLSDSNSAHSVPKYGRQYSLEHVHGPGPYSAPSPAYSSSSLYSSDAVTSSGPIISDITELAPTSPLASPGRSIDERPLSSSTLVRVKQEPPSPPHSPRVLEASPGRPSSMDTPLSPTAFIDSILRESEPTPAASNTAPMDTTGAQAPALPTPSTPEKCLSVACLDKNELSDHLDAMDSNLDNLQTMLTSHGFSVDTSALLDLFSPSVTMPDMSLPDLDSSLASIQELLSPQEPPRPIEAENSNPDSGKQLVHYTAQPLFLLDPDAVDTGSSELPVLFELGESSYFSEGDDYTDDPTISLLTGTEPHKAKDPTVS

Fatty acid synthase, sequence (P49327 whole entry, the tested form may be a part): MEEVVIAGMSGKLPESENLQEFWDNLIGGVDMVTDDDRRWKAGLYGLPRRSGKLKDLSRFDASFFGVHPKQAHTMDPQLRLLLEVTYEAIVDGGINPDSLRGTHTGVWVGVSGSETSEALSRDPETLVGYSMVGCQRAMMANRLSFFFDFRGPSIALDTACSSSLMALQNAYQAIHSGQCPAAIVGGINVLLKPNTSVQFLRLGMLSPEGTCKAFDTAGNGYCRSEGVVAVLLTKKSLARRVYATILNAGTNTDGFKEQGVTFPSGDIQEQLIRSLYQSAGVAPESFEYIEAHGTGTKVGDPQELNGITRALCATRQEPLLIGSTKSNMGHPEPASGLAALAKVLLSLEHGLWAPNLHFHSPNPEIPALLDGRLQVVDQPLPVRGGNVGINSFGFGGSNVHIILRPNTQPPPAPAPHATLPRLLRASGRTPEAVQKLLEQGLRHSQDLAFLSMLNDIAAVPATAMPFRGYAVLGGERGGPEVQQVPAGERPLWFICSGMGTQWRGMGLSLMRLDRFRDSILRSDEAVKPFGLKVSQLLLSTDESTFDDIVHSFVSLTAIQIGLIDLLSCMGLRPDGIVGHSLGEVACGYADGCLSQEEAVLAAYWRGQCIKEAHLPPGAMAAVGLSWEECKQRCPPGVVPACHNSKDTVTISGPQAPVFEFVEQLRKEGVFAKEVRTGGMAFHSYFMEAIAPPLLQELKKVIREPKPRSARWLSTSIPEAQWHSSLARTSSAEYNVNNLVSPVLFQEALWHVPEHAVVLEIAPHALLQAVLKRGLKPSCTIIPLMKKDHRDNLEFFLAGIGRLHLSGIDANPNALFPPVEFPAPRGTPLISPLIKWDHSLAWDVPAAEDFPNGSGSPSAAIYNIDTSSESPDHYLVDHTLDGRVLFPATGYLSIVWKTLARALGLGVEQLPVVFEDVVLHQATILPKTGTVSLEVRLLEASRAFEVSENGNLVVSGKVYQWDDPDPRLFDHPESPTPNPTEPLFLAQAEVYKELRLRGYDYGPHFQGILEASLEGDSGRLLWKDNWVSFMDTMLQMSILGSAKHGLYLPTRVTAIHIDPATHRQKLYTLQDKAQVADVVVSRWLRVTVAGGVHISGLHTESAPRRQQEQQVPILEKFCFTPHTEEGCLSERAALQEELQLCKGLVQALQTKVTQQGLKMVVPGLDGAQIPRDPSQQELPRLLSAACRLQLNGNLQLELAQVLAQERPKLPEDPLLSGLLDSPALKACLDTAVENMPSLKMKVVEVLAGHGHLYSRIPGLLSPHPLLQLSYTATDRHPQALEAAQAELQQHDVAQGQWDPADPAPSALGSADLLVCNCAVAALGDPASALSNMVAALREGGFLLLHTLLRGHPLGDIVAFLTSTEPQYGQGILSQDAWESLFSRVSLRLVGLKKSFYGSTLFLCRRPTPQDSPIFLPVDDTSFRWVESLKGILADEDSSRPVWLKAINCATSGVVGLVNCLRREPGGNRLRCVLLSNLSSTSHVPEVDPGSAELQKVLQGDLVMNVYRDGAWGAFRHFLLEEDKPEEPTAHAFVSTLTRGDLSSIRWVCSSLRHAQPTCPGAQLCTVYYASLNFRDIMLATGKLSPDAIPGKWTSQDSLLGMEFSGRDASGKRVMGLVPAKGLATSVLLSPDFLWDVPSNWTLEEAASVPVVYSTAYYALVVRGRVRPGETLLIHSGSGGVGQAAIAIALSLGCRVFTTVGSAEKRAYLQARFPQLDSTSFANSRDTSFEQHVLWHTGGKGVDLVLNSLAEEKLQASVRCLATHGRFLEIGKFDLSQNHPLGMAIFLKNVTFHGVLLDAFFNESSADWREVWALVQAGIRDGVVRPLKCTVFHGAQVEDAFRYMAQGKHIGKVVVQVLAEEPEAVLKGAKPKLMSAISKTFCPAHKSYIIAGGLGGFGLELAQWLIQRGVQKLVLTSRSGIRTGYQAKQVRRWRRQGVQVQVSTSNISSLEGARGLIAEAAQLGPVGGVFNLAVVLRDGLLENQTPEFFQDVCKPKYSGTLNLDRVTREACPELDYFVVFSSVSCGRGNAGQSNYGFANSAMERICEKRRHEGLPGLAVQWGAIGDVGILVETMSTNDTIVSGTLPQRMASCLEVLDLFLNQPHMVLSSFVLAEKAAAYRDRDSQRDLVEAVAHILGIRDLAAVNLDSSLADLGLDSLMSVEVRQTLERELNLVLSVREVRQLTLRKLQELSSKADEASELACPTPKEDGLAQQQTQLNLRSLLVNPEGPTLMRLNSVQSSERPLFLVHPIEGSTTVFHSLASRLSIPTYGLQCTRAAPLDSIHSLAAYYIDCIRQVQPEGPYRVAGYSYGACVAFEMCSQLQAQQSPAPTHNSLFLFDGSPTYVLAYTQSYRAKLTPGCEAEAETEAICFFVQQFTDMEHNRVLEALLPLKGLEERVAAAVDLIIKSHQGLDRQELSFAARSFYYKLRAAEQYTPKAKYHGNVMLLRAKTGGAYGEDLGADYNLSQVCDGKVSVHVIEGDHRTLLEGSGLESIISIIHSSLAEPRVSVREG

With `O=C(Nc1nnc(SCc2ccccc2Cl)s1)c1cccc([N+](=O)[O-])c1` the IC50 (Fatty acid synthase) was 11 µM (active).

In the case of `CCCn1nnc(NC(=O)COc2ccc(CC)cc2)n1`, the IC50 (cells) is reported as 27.6 µM (active).

With `c1ccc2c(c1)CSc1ccccc1N2` the EC50 [1] was > 120 µM (not active), the EC50 [2] was > 120 µM (not active) and the EC50 [3] was > 120 µM (not active).

In the case of `COc1cccc(NC(=O)c2ccc3nc(C)sc3c2)c1`, the EC50 [4] is reported as > 160 µM (inconclusive) and the EC50 [5] is reported as 1.53 µM (active).

With `COc1ccc(-c2ccc([C@@H]3[C@@H](CO)N4CCCCN(C(=O)c5ccc6c(c5)OCO6)C[C@@H]34)cc2)cc1` the AC50 [6] was 5.97 µM (active).

In the case of `Cc1ccc(CNC(=O)CCc2nc(O)c3ccccc3n2)cc1`, the IC50 (H9c2) is reported as 12.5 µM (active).

For `COCC(=O)N1CC2(C1)CN(Cc1ccccc1F)[C@@H](CO)c1[nH]c3cc(OC)ccc3c12`, the AC50 [6] was 6.55 µM (active).

With `COc1cc(C(=O)O/N=C2/C=CC(=O)C(C)=C2C)cc(OC)c1OC` the EC50 [7] was 18.3 µM (active) and the EC50 [8] was 19 µM (active).

With `COc1ccc2nc(O)c(CN(c3ccccc3OC)S(=O)(=O)c3ccccc3)cc2c1` the EC50 [9] was > 120 µM (not active), the EC50 [10] was 14.3 µM (active) and the EC50 (H4) was > 120 µM (not active). The IC50 (H9c2) was 13.3 µM (active).

In the case of `O=C(Nc1nnc(C2=COCCO2)o1)c1ccc(F)cc1`, the IC50 (cells) is reported as 6.55 µM (active).

In the case of `Cc1cc(C)n2nc(S(=O)(=O)Nc3c(Cl)cccc3Cl)nc2n1`, the IC50 (cells) is reported as 5.34 µM (active).

For `CCOC(=O)CSc1nc(O)c2ccccc2n1`, the IC50 (H9c2) was > 79 µM (inactive).

In the case of `CSc1ccccc1NC(=O)c1ccc(N2CC3CC(C2)c2cccc(=O)n2C3)c(NC(=O)c2cccnc2)c1` (centres undefined), the EC50 [1] is reported as > 120 µM (not active), the EC50 [2] is reported as > 120 µM (not active) and the EC50 [3] is reported as > 120 µM (not active).

With `Fc1ccc(-n2cc(-c3ccccc3)c3c(N4CCOCC4)ncnc32)cc1` the EC50 [11] was 2.3 µM (active) and the IC50 (H9c2) was > 79 µM (inactive).

For `O=C(NN=C(S)Nc1ccc(Cl)cc1)c1ccccc1OC(F)F`, the EC50 [4] was 72.6 µM (active) and the EC50 [5] was 6.72 µM (active).

With `Cc1cccc(C2c3[nH]c4ccccc4c3CCN2C(=O)c2cc(-c3cccn3C)[nH]n2)n1` (centres undefined) the EC50 [4] was > 160 µM (inconclusive) and the EC50 [5] was 3.22 µM (active).

In the case of `CCC(=O)c1ccc(OCC(=O)OCC(=O)N2CCc3ccccc3C2)cc1`, the IC50 (cells) is reported as 17.3 µM (active).
